Measurements taken from patent US9745261B2, “Inhibitors of the MITF molecular pathway” (THE GENERAL HOSPITAL CORPORATION, priority 2013, dated 2017).

Assays:
[1] = target: T1, Epidermal Growth Factor (EGF) (Homo sapiens, UniProt P00533); assay: Radioligand binding, Epidermal Growth Factor (EGF)
T1 construct: Eurofins Panlabs, Inc. (contract assay)

Dopamine D2S = target: T2, Dopamine D2S (Homo sapiens, UniProt P14416); assay: Radioligand binding, Dopamine D2S
T2 construct: Eurofins Panlabs, Inc. (contract assay)

[2] = target: T3, Platelet Activating Factor (PAF) (Homo sapiens, UniProt P25105); assay: Radioligand binding, Platelet Activating Factor (PAF)
T3 construct: Eurofins Panlabs

Bradykinin B2 = target: T4, Bradykinin B2 (Homo sapiens, UniProt P30411); assay: Radioligand binding, Bradykinin B2
T4 construct: Eurofins Panlabs, Inc. (contract assay)

Opiate δ1 (OP1, DOP) = target: T5, Opiate δ1 (OP1, DOP) (Homo sapiens, UniProt P41143); assay: Radioligand binding, Opiate δ1 (OP1, DOP)
T5 construct: Eurofins Panlabs, Inc

Bradykinin B1 = target: T6, Bradykinin B1 (Homo sapiens, UniProt P46663); assay: Radioligand binding, Bradykinin B1
T6 construct: Eurofins Panlabs, Inc. (contract assay)

[3] = target: T7, Transporter, Dopamine (DAT) (Homo sapiens, UniProt Q01959); assay: Radioligand binding, Transporter, Dopamine (DAT)
T7 construct: Eurofins Panlabs

Histamine H3 = target: T8, Histamine H3 (Homo sapiens, UniProt Q9Y5N1); assay: Radioligand binding, Histamine H3
T8 construct: Eurofins Panlabs, Inc

Opiate κ (OP2, KOP) = target: T9, Opiate κ (OP2, KOP) (Homo sapiens, UniProt P41145); assay: Radioligand binding, Opiate κ (OP2, KOP)
T9 construct: Eurofins Panlabs, Inc

Adrenergic α2A = target: T10, Adrenergic α2A (Homo sapiens, UniProt P08913); assay: Radioligand binding, Adrenergic α2A
T10 construct: Eurofins Panlabs, Inc. (contract assay)

Endothelin ETB = target: T11, Endothelin ETB (Homo sapiens, UniProt P24530); assay: Radioligand binding, Endothelin ETB
T11 construct: Eurofins Panlabs, Inc. (contract assay)

[4] = target: T12, Serotonin (5-Hydroxytryptamine) 5-HT2B (Homo sapiens, UniProt P41595); assay: Radioligand binding, Serotonin (5-Hydroxytryptamine) 5-HT2B
T12 construct: Eurofins Panlabs

Histamine H2 = target: T13, Histamine H2 (Homo sapiens, UniProt P25021); assay: Radioligand binding, Histamine H2
T13 construct: Eurofins Panlabs, Inc

Potassium Channel hERG = target: T14, Potassium Channel hERG (Homo sapiens, UniProt Q12809); assay: Radioligand binding, Potassium Channel hERG
T14 construct: Eurofins Panlabs

Sigma σ1 = target: T15, Sigma σ1 (Homo sapiens, UniProt Q99720); assay: Radioligand binding, Sigma σ1
T15 construct: Eurofins Panlabs

[5] = target: T16, Transporter, Serotonin (5-Hydroxytryptamine) (SERT) (Homo sapiens, UniProt P31645); assay: Radioligand binding, Transporter, Serotonin (5-Hydroxytryptamine) (SERT)
T16 construct: Eurofins Panlabs

Cannabinoid CB1 = target: T17, Cannabinoid CB1 (Homo sapiens, UniProt P21554); assay: Radioligand binding, Cannabinoid CB1
T17 construct: Eurofins Panlabs, Inc. (contract assay)

MITF = assay: qPCR assay for MITF expression in SK-MEL-5 cells; format: cell-based; settings: Homo sapiens; SK-MEL-5 melanoma cells, up to 35 μM
Method: SK-MEL-5 cells were treated with compounds for 24 hours. Next, cells were lysed with DNase I (Ambion, from Cell to CT Lysis Mix). Lysed cells were delivered to a RT-PCR plate (Ambion, Cells to CT RT Mix) and the plates were then processed for reverse transcription to create cDNA. qPCR was performed by transferring cDNA from the RT-PCR plate to a qPCR plate containing PCR master mix (Roche, Probes Master), FAM Taqman probe/primer set for the target gene (human MITF, Applied Biosystem, 4331182 Hs01117294_m1), VIC Taqman probe/primer set for a house keeping gene (human GAPDH, Applied Biosystems C10228) and water. qPCR plates were cycled using a real-time PCR instrument (Roche, Light Cycler). Using the instrument software, a cycle call was generated when each well enters log phase amplification (Ct). The delta Ct value was determined by subtracting the Ct value of the control gene (GAPDH) from the Ct value of the target gene (MITF) in each well. The delta delta Ct value of each compound treatment was determined by averaging the delta Ct values of the mock well on each plate and subtracting that average from the delta Ct value of each compound well. […]
• 10. […] The RT assay plates are incubated at 37° C. for 1 hour and the reverse transcriptase is inactivated by incubating the plates for 1 minute at 95° C. • 13. cDNA is stored at −80° C. until ready for qPCR analysis […]

T17 sequence (P21554 whole entry): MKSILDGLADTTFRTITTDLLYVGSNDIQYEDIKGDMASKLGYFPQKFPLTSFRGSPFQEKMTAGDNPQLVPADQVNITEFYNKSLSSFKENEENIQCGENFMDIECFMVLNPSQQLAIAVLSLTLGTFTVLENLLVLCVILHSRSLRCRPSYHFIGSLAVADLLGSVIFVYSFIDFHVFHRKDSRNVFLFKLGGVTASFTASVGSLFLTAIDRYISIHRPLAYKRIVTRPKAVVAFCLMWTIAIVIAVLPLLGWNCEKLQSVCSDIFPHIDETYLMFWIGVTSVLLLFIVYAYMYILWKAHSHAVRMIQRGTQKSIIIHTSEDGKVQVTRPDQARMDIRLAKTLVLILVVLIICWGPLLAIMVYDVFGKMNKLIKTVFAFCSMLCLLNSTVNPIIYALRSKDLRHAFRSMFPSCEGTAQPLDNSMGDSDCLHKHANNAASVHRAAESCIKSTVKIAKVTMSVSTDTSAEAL
T5 sequence (P41143 whole entry): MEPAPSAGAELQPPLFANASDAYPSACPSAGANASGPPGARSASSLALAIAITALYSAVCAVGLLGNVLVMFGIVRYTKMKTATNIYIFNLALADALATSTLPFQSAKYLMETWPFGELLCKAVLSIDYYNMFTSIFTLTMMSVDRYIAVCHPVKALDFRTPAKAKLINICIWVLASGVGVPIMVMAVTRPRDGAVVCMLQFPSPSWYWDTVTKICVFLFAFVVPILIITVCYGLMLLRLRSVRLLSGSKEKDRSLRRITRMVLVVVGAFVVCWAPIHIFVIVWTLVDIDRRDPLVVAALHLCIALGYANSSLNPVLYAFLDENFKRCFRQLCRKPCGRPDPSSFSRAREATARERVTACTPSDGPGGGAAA
T7 sequence (Q01959 whole entry): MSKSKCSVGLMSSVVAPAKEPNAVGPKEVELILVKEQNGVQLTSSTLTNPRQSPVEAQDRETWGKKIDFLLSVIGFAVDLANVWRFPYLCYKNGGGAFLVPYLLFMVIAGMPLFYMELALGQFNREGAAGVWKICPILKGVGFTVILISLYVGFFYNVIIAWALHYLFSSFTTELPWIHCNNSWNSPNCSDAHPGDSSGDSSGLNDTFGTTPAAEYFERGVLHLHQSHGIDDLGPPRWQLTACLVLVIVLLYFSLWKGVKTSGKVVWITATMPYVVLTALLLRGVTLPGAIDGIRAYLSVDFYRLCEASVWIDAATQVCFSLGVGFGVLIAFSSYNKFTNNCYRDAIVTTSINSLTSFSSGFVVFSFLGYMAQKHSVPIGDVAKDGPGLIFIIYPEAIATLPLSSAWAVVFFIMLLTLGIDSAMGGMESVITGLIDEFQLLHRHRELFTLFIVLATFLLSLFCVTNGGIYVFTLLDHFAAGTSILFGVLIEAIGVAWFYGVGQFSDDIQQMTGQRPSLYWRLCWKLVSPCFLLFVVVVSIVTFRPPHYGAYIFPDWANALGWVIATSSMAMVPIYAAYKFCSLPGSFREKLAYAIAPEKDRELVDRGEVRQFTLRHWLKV
T3 sequence (P25105 whole entry): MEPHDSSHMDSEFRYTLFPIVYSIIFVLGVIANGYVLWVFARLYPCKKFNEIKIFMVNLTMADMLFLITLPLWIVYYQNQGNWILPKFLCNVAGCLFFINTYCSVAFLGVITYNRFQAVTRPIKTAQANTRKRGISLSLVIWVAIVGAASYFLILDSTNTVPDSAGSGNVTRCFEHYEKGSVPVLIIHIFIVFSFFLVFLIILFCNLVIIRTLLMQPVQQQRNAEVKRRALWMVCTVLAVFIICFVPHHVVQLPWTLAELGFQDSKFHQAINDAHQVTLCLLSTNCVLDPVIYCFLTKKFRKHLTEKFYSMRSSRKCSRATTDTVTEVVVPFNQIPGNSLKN
T8 sequence (Q9Y5N1 whole entry): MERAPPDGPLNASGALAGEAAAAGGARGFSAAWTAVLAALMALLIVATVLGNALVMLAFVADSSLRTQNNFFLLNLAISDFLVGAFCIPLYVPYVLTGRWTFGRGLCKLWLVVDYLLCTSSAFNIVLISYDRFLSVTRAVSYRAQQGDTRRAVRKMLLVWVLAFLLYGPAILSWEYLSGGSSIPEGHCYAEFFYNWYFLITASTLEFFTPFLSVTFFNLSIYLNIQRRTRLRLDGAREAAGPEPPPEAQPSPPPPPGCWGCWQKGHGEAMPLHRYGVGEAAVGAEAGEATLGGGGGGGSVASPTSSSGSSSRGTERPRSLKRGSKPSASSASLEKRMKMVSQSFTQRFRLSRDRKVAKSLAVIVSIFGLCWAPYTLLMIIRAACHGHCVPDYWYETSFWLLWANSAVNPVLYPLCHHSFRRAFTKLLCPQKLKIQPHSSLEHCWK
T4 sequence (P30411 whole entry): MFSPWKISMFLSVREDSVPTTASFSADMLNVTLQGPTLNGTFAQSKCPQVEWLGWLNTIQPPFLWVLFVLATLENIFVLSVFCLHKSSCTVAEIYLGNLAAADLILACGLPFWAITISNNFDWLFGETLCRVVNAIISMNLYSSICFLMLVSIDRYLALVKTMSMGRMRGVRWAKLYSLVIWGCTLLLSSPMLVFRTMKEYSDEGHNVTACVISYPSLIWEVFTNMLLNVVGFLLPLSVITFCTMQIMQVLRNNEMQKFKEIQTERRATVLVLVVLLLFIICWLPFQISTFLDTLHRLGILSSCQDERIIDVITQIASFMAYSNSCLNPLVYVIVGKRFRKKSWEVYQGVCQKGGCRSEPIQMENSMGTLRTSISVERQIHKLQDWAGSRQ
T11 sequence (P24530 27-442): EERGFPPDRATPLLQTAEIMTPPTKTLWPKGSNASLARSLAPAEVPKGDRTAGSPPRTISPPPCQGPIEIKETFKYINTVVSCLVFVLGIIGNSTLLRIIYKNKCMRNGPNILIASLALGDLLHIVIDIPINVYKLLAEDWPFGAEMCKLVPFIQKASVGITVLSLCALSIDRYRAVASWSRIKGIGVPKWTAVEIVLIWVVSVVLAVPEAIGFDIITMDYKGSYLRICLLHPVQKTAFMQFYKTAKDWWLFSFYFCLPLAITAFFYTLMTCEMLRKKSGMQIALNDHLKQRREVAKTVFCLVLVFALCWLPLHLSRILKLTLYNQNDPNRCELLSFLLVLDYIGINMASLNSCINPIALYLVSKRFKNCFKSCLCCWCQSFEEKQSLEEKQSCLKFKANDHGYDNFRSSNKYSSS
T13 sequence (P25021 whole entry): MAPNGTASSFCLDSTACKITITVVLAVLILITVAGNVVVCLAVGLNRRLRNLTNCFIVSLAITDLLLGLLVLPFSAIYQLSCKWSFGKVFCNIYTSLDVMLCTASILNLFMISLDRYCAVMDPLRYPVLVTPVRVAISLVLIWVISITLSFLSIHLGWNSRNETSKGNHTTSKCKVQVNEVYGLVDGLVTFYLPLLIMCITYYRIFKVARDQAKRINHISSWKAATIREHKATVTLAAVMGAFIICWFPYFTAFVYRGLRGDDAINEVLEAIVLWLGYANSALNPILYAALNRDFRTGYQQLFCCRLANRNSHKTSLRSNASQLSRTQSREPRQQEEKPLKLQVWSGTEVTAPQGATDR
T1 sequence (P00533 25-1210): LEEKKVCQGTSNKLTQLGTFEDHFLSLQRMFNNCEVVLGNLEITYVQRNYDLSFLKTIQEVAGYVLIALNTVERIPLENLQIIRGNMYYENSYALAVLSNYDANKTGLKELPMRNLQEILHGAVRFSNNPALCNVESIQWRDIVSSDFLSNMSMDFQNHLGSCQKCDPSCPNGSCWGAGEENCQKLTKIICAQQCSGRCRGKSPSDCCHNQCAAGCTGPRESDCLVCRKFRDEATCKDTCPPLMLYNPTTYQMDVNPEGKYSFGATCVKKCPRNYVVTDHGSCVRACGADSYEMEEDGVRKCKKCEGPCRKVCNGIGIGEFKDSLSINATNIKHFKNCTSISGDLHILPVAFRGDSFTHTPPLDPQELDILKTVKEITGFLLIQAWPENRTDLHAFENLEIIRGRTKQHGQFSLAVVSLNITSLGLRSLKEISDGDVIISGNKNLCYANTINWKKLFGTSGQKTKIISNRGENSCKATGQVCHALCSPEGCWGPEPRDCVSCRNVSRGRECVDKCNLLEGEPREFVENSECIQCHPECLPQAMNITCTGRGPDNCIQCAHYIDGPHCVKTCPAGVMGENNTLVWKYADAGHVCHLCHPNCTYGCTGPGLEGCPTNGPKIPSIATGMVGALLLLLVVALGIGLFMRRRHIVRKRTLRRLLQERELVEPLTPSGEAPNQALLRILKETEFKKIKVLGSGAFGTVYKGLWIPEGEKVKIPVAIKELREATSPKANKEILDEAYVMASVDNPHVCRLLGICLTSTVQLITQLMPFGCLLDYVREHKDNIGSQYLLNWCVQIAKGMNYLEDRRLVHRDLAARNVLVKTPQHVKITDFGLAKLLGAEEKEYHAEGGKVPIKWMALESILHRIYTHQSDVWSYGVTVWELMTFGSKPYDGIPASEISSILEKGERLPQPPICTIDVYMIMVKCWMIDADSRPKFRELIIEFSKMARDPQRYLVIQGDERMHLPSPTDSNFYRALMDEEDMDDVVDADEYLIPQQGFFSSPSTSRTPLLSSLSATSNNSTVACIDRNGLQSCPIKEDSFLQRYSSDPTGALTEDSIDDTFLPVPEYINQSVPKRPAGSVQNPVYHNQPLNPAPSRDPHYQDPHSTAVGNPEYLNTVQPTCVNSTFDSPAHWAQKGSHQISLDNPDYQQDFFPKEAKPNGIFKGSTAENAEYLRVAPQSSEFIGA
T9 sequence (P41145 whole entry): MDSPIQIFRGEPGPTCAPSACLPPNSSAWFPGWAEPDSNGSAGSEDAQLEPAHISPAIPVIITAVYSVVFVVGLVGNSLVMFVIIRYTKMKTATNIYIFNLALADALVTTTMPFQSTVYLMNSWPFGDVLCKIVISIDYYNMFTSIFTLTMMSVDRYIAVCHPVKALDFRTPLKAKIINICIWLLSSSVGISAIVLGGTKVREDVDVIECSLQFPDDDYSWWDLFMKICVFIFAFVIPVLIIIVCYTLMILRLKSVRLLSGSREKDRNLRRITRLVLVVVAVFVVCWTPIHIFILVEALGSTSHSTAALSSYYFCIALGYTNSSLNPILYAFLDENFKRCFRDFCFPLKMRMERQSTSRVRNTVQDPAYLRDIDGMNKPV

SMILES: NS(=O)(=O)c1ccc(NC2=CC(=O)c3ccccc3C2=O)cc1 [Example 1, 4-((1,4-Dioxo-1,4-dihydronaphthalen-2-yl)amino)benzenesulfonamide]
- inhibition at 10 µM [1]: 11%
- inhibition at 10 µM (Dopamine D2S): 0%
- inhibition at 10 µM [2]: 3%
- inhibition at 10 µM (Bradykinin B2): 11%
- inhibition at 10 µM (Opiate δ1 (OP1, DOP)): -6%
- inhibition at 10 µM (Bradykinin B1): 29%
- inhibition at 10 µM [3]: 2%
- inhibition at 10 µM (Histamine H3): -5%
- inhibition at 10 µM (Opiate κ (OP2, KOP)): 19%
- inhibition at 10 µM (Adrenergic α2A): 33%
- inhibition at 10 µM (Endothelin ETB): 17%
- inhibition at 10 µM [4]: 37%
- inhibition at 10 µM (Histamine H2): -5%
- inhibition at 10 µM (Potassium Channel hERG): -4%
- inhibition at 10 µM (Sigma σ1): 15%
- inhibition at 10 µM [5]: -5%
- inhibition at 10 µM (Cannabinoid CB1): 31%

SMILES: NS(=O)(=O)c1ccc(NC2=CC(=O)c3ccccc3C2=O)cc1 [4-((1,4-dioxo-1,4-dihydronaphthalen-2-yl)amino)benzenesulfonamide]
- EC50 (MITF): 160 nM
